The test system of experiment [1] is leucine dehydrogenase. Kind of experiment: enzyme kinetics (Michaelis-Menten) of the reductive amination reaction of HOB with purified leucine dehydrogenase. The experiment is classed as biochemical, Lysinibacillus sphaericus. To be noted: 100 mM HEPES/KOH (pH 7.5), 200 mM ammonium chloride, 0.2 mM NADH, 3.7 µg/mL leucine dehydrogenase. On the procedure: The solution in which the bacterial cells were crushed and which was obtained in 4-6-(1) was subjected to a filtration treatment using a syringe filter with a pore size of 0.2 µm (manufactured by Sartorius AG). Fractionation was performed using an AKTA purifier system (manufactured by GE Healthcare) to which a HisTrap™ FF 1 mL column was connected, and using 50 mM sodium phosphate buffer (pH 8.0), 500 mM sodium chloride, and 10% glycerol as adsorption buffers, and 50 mM sodium phosphate buffer (pH 8.0), 500 mM sodium chloride, 10% glycerol, and 500 mM imidazole as elution buffers. Fractions containing leucine dehydrogenase identified by SDS-PAGE were recovered and concentrated using ultrafiltration. […]
Using the purified leucine dehydrogenase thus obtained, analysis of enzyme kinetics based on the Michaelis-Menten formula using HOB as a substrate was performed. As reaction conditions, 100 mM HEPES/KOH (pH 7.5), 200 mM ammonium chloride, 0.2 mM NADH, and 3.7 µg/mL leucine dehydrogenase were used, and a reaction rate at which a concentration of HOB was 3.13, 6.25, 12.5, 25.0, 50.0, and 100 mM was measured. A reaction rate was calculated by measuring a continuous decrease in absorption by NADH at 340 nm using a Varioskan LUX (manufactured by Thermo Fisher Scientific Inc.). […]

Experiment [2] has as its system leucine dehydrogenase. Kind of experiment: oxidative deamination reaction activity against L-homoserine, crushed-cell solution expressing leucine dehydrogenase. It is filed as biochemical, Lysinibacillus sphaericus. To be noted: crushed cells of GES1007 (E. coli BL21 (DE3), pGE1148); 100 mM glycine-KCl-KOH (pH 10.0), 2.5 mM NAD^+, 50 mM L-homoserine; NADH absorption at 340 nm. On the procedure: Transformation was performed using pGE1148 and using ECOSTM Competent E. coli BL21 (DE3) (manufactured by NIPPON GENE CO., LTD.) according to its instructions, and the obtained strain was designated as GES1007. GES1007 was inoculated into an LB agar medium containing 100 µg/mL of ampicillin under aseptic conditions, and culture was performed at 37°C. Bacterial cells grown on the agar medium were inoculated into 10 mL of an LB medium containing 100 µg/mL of ampicillin, and shaking culture was performed at 37°C to prepare a seed culture solution. This seed culture solution was inoculated into 100 mL of an LB medium containing 100 µg/mL of ampicillin and prepared in a 500 mL flask so that a turbidity was 0.1. Shaking was performed at 37°C, and culture was performed until a turbidity was 0.7. […] When a protein concentration in this solution in which the cells were crushed was measured, it was 12 mg/mL.
Using this solution in which the bacterial cells were crushed, an oxidative deamination reaction activity against L-homoserine was measured. As the reaction conditions, an appropriately diluted solution in which the bacterial cells were crushed was mixed with 100 mM glycine-KCl-KOH (pH 10.0), 2.5 mM NAD^+, and 50 mM L-homoserine, and a continuous increase in absorption by NADH at 340 nm was measured using a Varioskan LUX (manufactured by Thermo Fisher Scientific Inc.). […]

The next experiment addresses T1, valine dehydrogenase (Streptomyces fradiae, UniProt P40176).
T1 construct: His-tag (pET-15b vector-encoded, with thrombin site); made in house; host or cells: E. coli BL21 (DE3), strain GES1057, plasmid pGE1175 (pET-15b)
Kind of experiment: oxidative deamination reaction activity against L-homoserine, crushed-cell solution expressing valine dehydrogenase. The experiment is classed as biochemical. As to conditions: crushed cells of GES1057 (E. coli BL21 (DE3), pGE1175); same conditions as 4-6-(1): pH 10.0, 2.5 mM NAD^+, 50 mM L-homoserine. Here is the method:
(§1) Using this solution in which the bacterial cells were crushed, an oxidative deamination reaction activity against L-homoserine was measured. As the reaction conditions, an appropriately diluted solution in which the bacterial cells were crushed was mixed with 100 mM glycine-KCl-KOH (pH 10.0), 2.5 mM NAD^+, and 50 mM L-homoserine, and a continuous increase in absorption by NADH at 340 nm was measured using a Varioskan LUX (manufactured by Thermo Fisher Scientific Inc.). As a result, a specific activity of this solution in which the bacterial cells were crushed against L-homoserine was 0.21 U/mg of protein.
Transformation was performed using pGE1175 and using ECOSTM Competent E. coli BL21 (DE3) (manufactured by NIPPON GENE CO., LTD.) according to its instructions, and the obtained strain was designated as GES 1057. When a protein concentration in a solution, in which the cells were crushed and which was obtained by subjecting GES1057 to the same operation as that of GES 1007, was measured, it was 4.2 mg/mL.
As a result of measuring an oxidative deamination reaction activity against L-homoserine in the same manner as in 4-6-(1) using this solution in which the bacterial cells were crushed, a specific activity of this solution in which the bacterial cells were crushed against L-homoserine was 0.21 U/mg of protein.

Experiment [3] has as its target T2, phenylalanine dehydrogenase (Pseudobacillus badius, UniProt Q59224).
T2 construct: His-tag (pET-15b vector-encoded, with thrombin site); made in house; host or cells: E. coli BL21 (DE3), strain GES1136, plasmid pGE1237 (pET-15b)
The experiment can be described thus: oxidative deamination reaction activity against L-homoserine, crushed-cell solution expressing phenylalanine dehydrogenase. The experiment is classed as biochemical, Bacillus badius. To be noted: crushed cells of GES1136 (E. coli BL21 (DE3), pGE1237); same conditions as 4-6-(1): pH 10.0, 2.5 mM NAD^+, 50 mM L-homoserine. On the procedure: as §1
Transformation was performed using pGE1237 and using ECOSTM Competent E. coli BL21 (DE3) (manufactured by NIPPON GENE CO., LTD.) according to its instructions, and the obtained strain was designated as GES 1136. When a protein concentration in a solution, in which the cells were crushed and which was obtained by subj ecting GES1136 to the same operation as that of GES 1007, was measured, it was 11 mg/mL.
As a result of measuring an oxidative deamination reaction activity against L-homoserine in the same manner as in 4-6-(1) using this solution in which the bacterial cells were crushed, a specific activity of this solution in which the bacterial cells were crushed against L-homoserine was 0.045 U/mg of protein.

Usually Km stands for the concentration of substrate that gives half-maximal velocity.

T2 sequence (Q59224 whole entry): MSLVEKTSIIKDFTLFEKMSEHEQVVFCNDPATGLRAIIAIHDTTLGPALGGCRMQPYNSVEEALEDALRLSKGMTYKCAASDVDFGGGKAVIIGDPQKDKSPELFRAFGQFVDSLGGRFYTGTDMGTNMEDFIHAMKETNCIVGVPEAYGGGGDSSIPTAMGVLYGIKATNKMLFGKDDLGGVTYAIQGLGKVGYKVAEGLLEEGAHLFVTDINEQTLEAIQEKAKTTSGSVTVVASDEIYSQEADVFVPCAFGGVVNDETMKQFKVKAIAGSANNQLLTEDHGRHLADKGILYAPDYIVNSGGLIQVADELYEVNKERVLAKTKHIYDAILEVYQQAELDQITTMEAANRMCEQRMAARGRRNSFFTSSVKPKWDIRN
T1 sequence (P40176 whole entry): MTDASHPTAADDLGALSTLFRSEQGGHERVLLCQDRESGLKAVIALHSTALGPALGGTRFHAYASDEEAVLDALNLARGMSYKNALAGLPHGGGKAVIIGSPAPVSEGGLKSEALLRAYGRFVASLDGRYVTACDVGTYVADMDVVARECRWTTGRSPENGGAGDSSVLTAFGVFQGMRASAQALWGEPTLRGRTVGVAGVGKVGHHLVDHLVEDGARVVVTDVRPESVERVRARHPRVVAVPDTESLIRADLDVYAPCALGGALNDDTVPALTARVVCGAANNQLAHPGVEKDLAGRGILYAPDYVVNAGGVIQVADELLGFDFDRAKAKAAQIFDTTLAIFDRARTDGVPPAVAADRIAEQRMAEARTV

For the molecule `O=C(O)C(=O)CCO` [HOB, 4-hydroxy-2-oxobutyric acid], in the experiment with leucine dehydrogenase [1] (HOB 3.13-100 mM, read-out: Michaelis constant KM for HOB), the Km was 7.7 mM. Further, the “catalyst rotation speed kcat” value in the experiment on leucine dehydrogenase [1] (HOB as a substrate) is 2.7 s⁻¹.

Turning to `N[C@@H](CCO)C(=O)O` [L-homoserine], the “specific activity of this solution in which the bacterial cells were crushed against L-homoserine” value with leucine dehydrogenase [2] was 0.21 U/mg of protein; on valine dehydrogenase, 0.21 U/mg of protein; in experiment [3], 0.045 U/mg of protein.

These data come from patent EP3875590A1, “METHOD FOR PRODUCING ORGANIC COMPOUND AND CORYNEFORM BACTERIUM” (Green Earth Institute Co., Ltd., priority 2018, dated 2020).
